Assay results: patent US20030068322A1, “Methods of antibody-directed enzyme-prodrug therapy” (IMMUNOMEDICS, INC., priority 1988, published 2003)

Tests used:
[1] = versus CPT-11; cited from earlier work
lymphoma = test: Therapy of lymphoma in a human patient; assay type: in vivo; details: 10 mg i.v. on each of 4 days after anti-lymphoma IgG-glucuronidase conjugate
Procedure: A human patient suffering from lymphoma is infused intravenously with a sterile, pyrogen-free PBS solution containing 5 mg of an anti-lymphoma IgG-glucuronidase conjugate prepared according to the example above, and labeled with I-131. […] The patient is then infused intravenously with a sterile, pyrogen-free PBS solution containing 10 mg of epirubicin glucuronide, prepared according to the example above, on each of the next 4 days.

[2] = target: T1, human beta-D-glucuronidase (Homo sapiens, UniProt P08236); details: Arcamone, Cancer Res. 45:5995 (1985); cited from earlier work
T1 sequence (P08236 23-651): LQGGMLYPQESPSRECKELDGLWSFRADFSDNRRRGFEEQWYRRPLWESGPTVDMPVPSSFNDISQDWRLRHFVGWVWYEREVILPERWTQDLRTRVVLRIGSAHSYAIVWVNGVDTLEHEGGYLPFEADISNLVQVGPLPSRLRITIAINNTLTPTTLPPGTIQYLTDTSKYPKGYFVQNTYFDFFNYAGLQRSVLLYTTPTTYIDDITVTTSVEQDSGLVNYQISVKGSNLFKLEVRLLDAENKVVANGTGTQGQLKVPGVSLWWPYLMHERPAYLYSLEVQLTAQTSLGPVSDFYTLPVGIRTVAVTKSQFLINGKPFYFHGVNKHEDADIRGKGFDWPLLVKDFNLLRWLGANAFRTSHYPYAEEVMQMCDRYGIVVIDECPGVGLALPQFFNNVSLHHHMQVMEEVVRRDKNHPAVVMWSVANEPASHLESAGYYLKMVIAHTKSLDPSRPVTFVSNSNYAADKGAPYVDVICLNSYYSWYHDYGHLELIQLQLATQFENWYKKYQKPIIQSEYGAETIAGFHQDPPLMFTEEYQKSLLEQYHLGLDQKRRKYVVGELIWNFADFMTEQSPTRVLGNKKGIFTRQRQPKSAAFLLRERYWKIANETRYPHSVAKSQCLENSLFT

CCc1c2c(nc3ccc(O)cc13)-c1cc3c(c(=O)n1C2)COC(=O)[C@]3(O)CC [SN-38]
toxicity relative to CPT-11 [1]: at least one hundred-fold more toxic

COc1cccc2c1C(=O)c1c(O)c3c(c(O)c1C2=O)C[C@@](O)(C(=O)CO)C[C@@H]3O[C@H]1C[C@H](N)[C@@H](O[C@@H]2O[C@H](C(=O)O)[C@@H](O)[C@H](O)[C@H]2O)[C@H](C)O1 [epirubicin glucuronide]
reduction in lymphoma by radioimmunodetection (lymphoma): significant reduction in the lymphoma

COc1cccc2c1C(=O)c1c(O)c3c(c(O)c1C2=O)C[C@@](O)(C(=O)CO)C[C@@H]3O[C@H]1C[C@H](N)[C@@H](O)[C@H](C)O1 [epirubicin]
substrate for human beta-D-glucuronidase [2]: has been shown to be a substrate
